# From PMC10850145, “Hormonal steroids induce multidrug resistance and stress response genes in Neisseria gonorrhoeae by binding to MtrR” (Nature Communications, 2024)
# Values joined by “and” are separate entries in the source; they are usually repeats but may differ in a detail not shown here. Equal values may be shown once. Read-outs that look alike come from different tables or passages of the source.
# What was measured:
# [1] = system: gonococcal strain FA19; experiment: MIC of steroidal hormones on GC agar, strain FA19; type: cell-based; settings: Neisseria gonorrhoeae, strain FA19, GC agar, read-out: MIC
# Procedure: To determine the minimal inhibitory concentrations (MICs) by the steroidal hormones and their effect on antimicrobial susceptibility, 5 x 10^5 CFU and 1:5 serial dilutions of gonococcal strains were spotted on GC agar plates containing different concentrations of antibiotics and/or hormones as indicated. Antimicrobial susceptibility was assessed after 24 h incubation.
# Table S1. Steroidal hormones are substrates of the MtrCDE efflux pump
# Progesterone Testosterone
# *Minimal inhibition concentration is defined by the lowest concentration at which visible growth is […]
# [2] = system: rpoH-lacZ expression; type: cell-based, Neisseria gonorrhoeae; settings: for Miller units, single well: individual replicate; for Miller units, Mean: mean of 4 wells; for Miller units / β-galactosidase activity (Miller units): rpoH-lacZ, single replicate
# [3] = system: FA19-rpoH-lacZ; experiment: Gonococcal growth in liquid culture (GC broth) with hormones (Fig S7)
# [4] = 6.25 µM hormone, plate columns 1-6 (WT)
# [5] = 6.25 µM hormone, plate columns 7-12 (second strain, not WT)
# [6] = 12.5 µM hormone, plate columns 1-6 (WT)
# [7] = 12.5 µM hormone, plate columns 7-12 (second strain, not WT)
# [8] = 25 µM hormone, plate columns 1-6 (WT)
# [9] = 25 µM hormone, plate columns 7-12 (second strain, not WT)
# [10] = 50 µM hormone, plate columns 1-6 (WT)
# [11] = 50 µM hormone, plate columns 7-12 (second strain, not WT)
# [12] = ΔmtrR + mtrR D171A in trans, 6.25 µM hormone
# [13] = ΔmtrR + mtrR D171A in trans, 12.5 µM hormone
# [14] = ΔmtrR + mtrR D171A in trans, 25 µM hormone
# [15] = ΔmtrR + mtrR D171A in trans, 50 µM hormone
smiles,measurement,setting,value
"CC(=O)[C@H]1CC[C@H]2[C@@H]3CCC4=CC(=O)CC[C@]4(C)[C@H]3CC[C@]12C [Progesterone, progesterone]",MIC,[1]; 24 h,127 µM
same,MIC,[1],40 µg/mL
same,"Miller units, single well",[2]; [4],42 Miller units and 34 Miller units and 33 Miller units
same,"Miller units, Mean",[2]; [4],35 Miller units
same,"Miller units, single well",[2]; [5],87 Miller units and 84 Miller units and 94 Miller units and 85 Miller units
same,"Miller units, Mean",[2]; [5],87 Miller units
same,"Miller units, single well",[2]; [6],35 Miller units and 36 Miller units and 31 Miller units and 38 Miller units
same,"Miller units, Mean",[2]; [6],35 Miller units
same,"Miller units, single well",[2]; [7],87 Miller units and 78 Miller units and 71 Miller units and 77 Miller units
same,"Miller units, Mean",[2]; [7],78 Miller units
same,"Miller units, single well",[2]; [8],60 Miller units and 61 Miller units and 39 Miller units and 59 Miller units
same,"Miller units, Mean",[2]; [8],55 Miller units
same,"Miller units, single well",[2]; [9],95 Miller units and 81 Miller units and 89 Miller units and 80 Miller units
same,"Miller units, Mean",[2]; [9],86 Miller units
same,"Miller units, single well",[2]; [10],66 Miller units and 65 Miller units and 44 Miller units
same,"Miller units, Mean",[2]; [10],60 Miller units
same,"Miller units, single well",[2]; [11],64 Miller units and 60 Miller units and 72 Miller units and 71 Miller units
same,"Miller units, Mean",[2]; [11],67 Miller units
same,induction of rpoH expression,"[2]; complemented (MtrR+) strains, increasing hormone",could be induced
same,induction of rpoH expression,[2]; loss of MtrR or MtrR-D171A strain,abrogated
same,Miller units,[2]; [12],94 Miller units
same,β-galactosidase activity (Miller units),[2]; [12],87 Miller units and 84 Miller units and 85 Miller units
same,Miller units,[2]; [13],71 Miller units
same,β-galactosidase activity (Miller units),[2]; [13],87 Miller units and 78 Miller units and 77 Miller units
same,Miller units,[2]; [14],89 Miller units
same,β-galactosidase activity (Miller units),[2]; [14],95 Miller units and 81 Miller units and 80 Miller units
same,Miller units,[2]; [15],72 Miller units
same,β-galactosidase activity (Miller units),[2]; [15],64 Miller units and 60 Miller units and 71 Miller units
same,β-galactosidase activity (Miller units),"[2]; ΔmtrR + mtrR WT in trans, 6.25 µM hormone",42 Miller units and 34 Miller units and 33 Miller units
same,β-galactosidase activity (Miller units),"[2]; ΔmtrR + mtrR WT in trans, 12.5 µM hormone",35 Miller units and 36 Miller units and 31 Miller units and 38 Miller units
same,β-galactosidase activity (Miller units),"[2]; ΔmtrR + mtrR WT in trans, 25 µM hormone",60 Miller units and 61 Miller units and 39 Miller units and 59 Miller units
same,β-galactosidase activity (Miller units),"[2]; ΔmtrR + mtrR WT in trans, 50 µM hormone",66 Miller units and 65 Miller units and 44 Miller units
same,β-galactosidase activity (Miller units),"[2]; ΔmtrR strain, 6.25 µM hormone",315 Miller units and 172 Miller units and 146 Miller units
same,β-galactosidase activity (Miller units),"[2]; ΔmtrR strain, 12.5 µM hormone",228 Miller units and 142 Miller units and 163 Miller units
same,β-galactosidase activity (Miller units),"[2]; ΔmtrR strain, 25 µM hormone",253 Miller units and 160 Miller units and 118 Miller units
same,β-galactosidase activity (Miller units),"[2]; ΔmtrR strain, 50 µM hormone",186 Miller units and 118 Miller units and 96 Miller units
same,Miller units,"[2]; ΔmtrR, 6.25 µM hormone",180 Miller units
same,Miller units,"[2]; ΔmtrR, 12.5 µM hormone",168 Miller units
same,Miller units,"[2]; ΔmtrR, 25 µM hormone",170 Miller units
same,Miller units,"[2]; ΔmtrR, 50 µM hormone",138 Miller units
same,"β-galactosidase activity, rpoH-lacZ, Mean","[2]; strain WT (FA19/pLES94-rpoH), hormone 6.25 µM",66 Miller units
same,"β-galactosidase activity, rpoH-lacZ, Mean","[2]; strain WT (FA19/pLES94-rpoH), hormone 12.5 µM",79 Miller units
same,"β-galactosidase activity, rpoH-lacZ, Mean","[2]; strain WT (FA19/pLES94-rpoH), hormone 50 µM",136 Miller units
same,activation of rpoH,[2]; strain producing MtrR R176E,almost no activation
same,"β-galactosidase activity, rpoH-lacZ, Mean","[2]; strain ΔmtrR (FA19 ∆mtrR/pLES94-rpoH), hormone 6.25 µM",203 Miller units
same,"β-galactosidase activity, rpoH-lacZ, Mean","[2]; strain ΔmtrR (FA19 ∆mtrR/pLES94-rpoH), hormone 12.5 µM",175 Miller units
same,"β-galactosidase activity, rpoH-lacZ, Mean","[2]; strain ΔmtrR (FA19 ∆mtrR/pLES94-rpoH), hormone 25 µM",175 Miller units
same,"β-galactosidase activity, rpoH-lacZ, Mean","[2]; strain ΔmtrR (FA19 ∆mtrR/pLES94-rpoH), hormone 50 µM",134 Miller units
same,"β-galactosidase activity, rpoH-lacZ, Mean","[2]; strain ΔmtrR + mtrR D171A (pGCC3-mtrR D171A), hormone 6.25 µM",87 Miller units
same,"β-galactosidase activity, rpoH-lacZ, Mean","[2]; strain ΔmtrR + mtrR D171A (pGCC3-mtrR D171A), hormone 12.5 µM",78 Miller units
same,"β-galactosidase activity, rpoH-lacZ, Mean","[2]; strain ΔmtrR + mtrR D171A (pGCC3-mtrR D171A), hormone 25 µM",86 Miller units
same,"β-galactosidase activity, rpoH-lacZ, Mean","[2]; strain ΔmtrR + mtrR D171A (pGCC3-mtrR D171A), hormone 50 µM",67 Miller units
same,"β-galactosidase activity, rpoH-lacZ, Mean","[2]; strain ΔmtrR + mtrR WT (pGCC3-mtrR), hormone 6.25 µM",35 Miller units
same,"β-galactosidase activity, rpoH-lacZ, Mean","[2]; strain ΔmtrR + mtrR WT (pGCC3-mtrR), hormone 12.5 µM",35 Miller units
same,"β-galactosidase activity, rpoH-lacZ, Mean","[2]; strain ΔmtrR + mtrR WT (pGCC3-mtrR), hormone 25 µM",55 Miller units
same,"β-galactosidase activity, rpoH-lacZ, Mean","[2]; strain ΔmtrR + mtrR WT (pGCC3-mtrR), hormone 50 µM",60 Miller units
same,growth curve reading after BLANKING,"[3]; 0 hr, 0.1 µM",0.013
same,"growth curve reading, raw replicates","[3]; 0 hr, 0.1 µM",0.046
same,growth curve reading after BLANKING,"[3]; 0 hr, 1 µM",0.013
same,"growth curve reading, raw replicates","[3]; 0 hr, 1 µM",0.046
same,growth curve reading after BLANKING,"[3]; 0 hr, 10 µM",0.013
same,"growth curve reading, raw replicates","[3]; 0 hr, 10 µM",0.046
same,growth curve reading after BLANKING,"[3]; 0 hr, 25 µM",0.013
same,"growth curve reading, raw replicates","[3]; 0 hr, 25 µM",0.046
same,growth curve reading after BLANKING,"[3]; 0 hr, 50 µM",0.013
same,"growth curve reading, raw replicates","[3]; 0 hr, 50 µM",0.046
same,growth curve reading after BLANKING,"[3]; 1.18 hr, 0.1 µM",0.018
same,"growth curve reading, raw replicates","[3]; 1.18 hr, 0.1 µM",0.051 and 0.052
